In paper PMC8674378 (Journal of the American Chemical Society, 2021):
In brackets after ≈: the same amount, converted by molar mass.

How the values were obtained:
ThAHAS^M = test: AHAS enzyme inhibition assay; assay type: biochemical, Trichoderma afroharzianum t-22; settings: for IC50: [E]=0.5 μM
CalAHAS = settings: cited from earlier work
ScsAHAS = molecular target: T1, ScsAHAS (Sclerotinia sclerotiorum, UniProt A7EMK2); test: AHAS enzyme inhibition assay; assay type: biochemical, S. sclerotiorum 1980 UF-70
T1 sequence (A7EMK2 30-699): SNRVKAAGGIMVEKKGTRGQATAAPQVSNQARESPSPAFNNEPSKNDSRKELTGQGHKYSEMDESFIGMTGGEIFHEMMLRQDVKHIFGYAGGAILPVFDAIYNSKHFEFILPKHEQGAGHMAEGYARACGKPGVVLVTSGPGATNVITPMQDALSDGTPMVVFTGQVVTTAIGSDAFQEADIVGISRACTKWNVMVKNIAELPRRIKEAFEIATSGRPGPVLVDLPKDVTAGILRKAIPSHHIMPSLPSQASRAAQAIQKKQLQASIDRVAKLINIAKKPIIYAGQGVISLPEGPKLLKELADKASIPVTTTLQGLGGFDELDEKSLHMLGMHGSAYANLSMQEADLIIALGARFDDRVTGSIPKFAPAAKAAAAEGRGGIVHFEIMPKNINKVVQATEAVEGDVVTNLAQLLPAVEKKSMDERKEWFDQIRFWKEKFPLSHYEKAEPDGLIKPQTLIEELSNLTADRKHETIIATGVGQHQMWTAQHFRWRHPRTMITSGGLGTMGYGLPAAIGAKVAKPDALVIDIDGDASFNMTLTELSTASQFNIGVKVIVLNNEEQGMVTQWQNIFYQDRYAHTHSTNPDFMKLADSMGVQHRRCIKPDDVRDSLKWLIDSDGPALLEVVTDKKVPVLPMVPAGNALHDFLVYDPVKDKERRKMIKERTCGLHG

Sclerotinia sclerotiorum = settings: plant pathogenic fungus; cited from earlier work
Rhizoctonia solani = settings: plant pathogenic fungus; cited from earlier work
soybeans = settings: cited from earlier work
canola seedlings = settings: higher (10–100 μg) doses, petri dishes; cited from earlier work
F. oxysporum = test: Antifungal resazurin assay; assay type: cell-based
(UniProt Z9DR95LUB2) = test: AHAS enzyme inhibition assay; assay type: biochemical, Trichoderma afroharzianum t-22
ThAHAS = test: AHAS enzyme inhibition assay; assay type: biochemical, Trichoderma afroharzianum t-22
AtAHAS = molecular target: T2, AtAHAS (Arabidopsis thaliana, UniProt P17597); test: AHAS enzyme inhibition assay; assay type: biochemical
T2 sequence (P17597 56-670): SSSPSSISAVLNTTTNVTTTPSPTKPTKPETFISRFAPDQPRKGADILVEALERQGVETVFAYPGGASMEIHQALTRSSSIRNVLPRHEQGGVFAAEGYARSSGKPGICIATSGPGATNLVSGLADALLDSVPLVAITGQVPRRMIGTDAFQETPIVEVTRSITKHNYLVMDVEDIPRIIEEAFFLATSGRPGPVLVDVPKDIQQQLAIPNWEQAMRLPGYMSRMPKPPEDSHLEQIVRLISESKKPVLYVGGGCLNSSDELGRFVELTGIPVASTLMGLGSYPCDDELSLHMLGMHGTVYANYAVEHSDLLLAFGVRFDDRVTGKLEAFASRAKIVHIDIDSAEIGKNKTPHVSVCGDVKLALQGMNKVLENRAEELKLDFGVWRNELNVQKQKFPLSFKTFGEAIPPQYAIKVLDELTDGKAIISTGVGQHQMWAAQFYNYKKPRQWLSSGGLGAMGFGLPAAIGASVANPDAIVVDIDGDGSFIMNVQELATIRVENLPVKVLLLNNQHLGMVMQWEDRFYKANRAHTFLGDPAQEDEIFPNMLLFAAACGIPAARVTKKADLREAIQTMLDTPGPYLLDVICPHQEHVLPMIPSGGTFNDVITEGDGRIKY

ThAHAS K247A = molecular target: T3, ThAHAS K247A (Trichoderma afroharzianum, UniProt A0ABF7PL51, K247A); test: AHAS enzyme inhibition assay, K247A mutant; assay type: biochemical, Trichoderma afroharzianum t-22
T3 sequence (A0ABF7PL51 53-689 K247A): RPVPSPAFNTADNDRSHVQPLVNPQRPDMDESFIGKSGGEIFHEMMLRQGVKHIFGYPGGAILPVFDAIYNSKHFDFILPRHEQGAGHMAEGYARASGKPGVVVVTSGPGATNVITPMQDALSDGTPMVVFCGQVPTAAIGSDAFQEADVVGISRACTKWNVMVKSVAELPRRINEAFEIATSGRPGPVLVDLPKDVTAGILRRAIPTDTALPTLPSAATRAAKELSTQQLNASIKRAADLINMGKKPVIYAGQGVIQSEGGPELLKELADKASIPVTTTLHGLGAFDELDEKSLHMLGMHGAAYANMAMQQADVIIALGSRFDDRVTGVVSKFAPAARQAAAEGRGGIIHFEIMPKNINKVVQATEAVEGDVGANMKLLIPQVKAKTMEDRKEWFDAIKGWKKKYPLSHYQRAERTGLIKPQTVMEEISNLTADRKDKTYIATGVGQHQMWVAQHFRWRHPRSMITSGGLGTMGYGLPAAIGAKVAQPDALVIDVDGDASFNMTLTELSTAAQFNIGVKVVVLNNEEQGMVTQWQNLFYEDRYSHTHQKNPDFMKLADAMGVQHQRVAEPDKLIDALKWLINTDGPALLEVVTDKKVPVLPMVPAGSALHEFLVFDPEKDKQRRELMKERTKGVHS

[1] = tested on: S. cerevisiae Δilv2 strain with AHAS complementation; assay type: cell-based; settings: under assay concentrations, even in Ile and Val supplemented growth media
FuoAHAS = FuoAHAS (Fusarium oxysporum, UniProt X0CFW6); test: AHAS enzyme inhibition assay; assay type: biochemical, F. oxysporum NRRL 32931
SceAHAS = SceAHAS (Saccharomyces cerevisiae, UniProt P07342); test: biochemical
[2] = tested on: S. cerevisiae Δilv2 strain expressing ThAHAS; test: Yeast growth inhibition in Ile and Val dropout medium; assay type: cell-based; settings: Δilv2 complemented with ThAHAS
[3] = tested on: S. cerevisiae Δilv2 strain expressing ThAHAS^M; test: as above; assay type: cell-based; settings: Δilv2 complemented with ThAHAS^M
[4] = tested on: S. cerevisiae BJ5464-NpgA; test: as above; assay type: cell-based; settings: parent yeast strain
[5] = tested on: S. cerevisiae Δilv2 strain expressing AtAHAS; test: as above; assay type: cell-based; settings: Δilv2 complemented with AtAHAS

Sequence of SceAHAS (P07342 91-687): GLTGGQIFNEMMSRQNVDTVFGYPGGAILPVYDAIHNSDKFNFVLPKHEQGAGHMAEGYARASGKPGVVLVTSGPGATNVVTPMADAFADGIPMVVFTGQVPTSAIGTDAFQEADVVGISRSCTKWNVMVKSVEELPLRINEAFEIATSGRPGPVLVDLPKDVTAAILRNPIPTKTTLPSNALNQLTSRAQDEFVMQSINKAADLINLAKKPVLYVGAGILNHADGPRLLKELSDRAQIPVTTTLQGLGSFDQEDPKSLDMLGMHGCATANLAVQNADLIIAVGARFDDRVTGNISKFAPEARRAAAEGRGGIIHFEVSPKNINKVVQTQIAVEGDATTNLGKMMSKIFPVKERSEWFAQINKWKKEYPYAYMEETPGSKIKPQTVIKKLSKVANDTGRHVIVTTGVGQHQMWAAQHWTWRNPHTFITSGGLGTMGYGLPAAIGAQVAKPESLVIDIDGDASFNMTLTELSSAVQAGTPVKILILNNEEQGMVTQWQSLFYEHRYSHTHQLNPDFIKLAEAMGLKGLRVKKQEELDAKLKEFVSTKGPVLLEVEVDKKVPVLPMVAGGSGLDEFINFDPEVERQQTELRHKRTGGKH

Compound: CCCC=CC=CC(=O)C1=C(O)C(CC(O)(C(=O)O)C(C)C)NC1=O (stereo not shown) [compound 5, demethylharzianic acid]
- IC50 (ThAHAS^M): 37 µM

Compound: COc1cc(OC)n2nc(S(=O)(=O)Nc3c(Cl)ccc(C)c3Cl)nc2n1 [MT, metosulam]
- Ki (CalAHAS): low nanomolar

Compound: CCCC=CC=CC(=O)C1=C(O)C(CC(O)(C(=O)O)C(C)C)N(C)C1=O (stereo not shown) [HA, harzianic acid]
- Ki (ScsAHAS): 11 µM
- antifungal activity (Sclerotinia sclerotiorum): antifungal activity
- antifungal activity (Rhizoctonia solani): antifungal activity
- increase of production of soybean pods and seeds (soybeans; field conditions): 5–10%
- improvement of stem lengths (soybeans; soybeans, greenhouse conditions): > 40%
- effect on growth of canola seedlings (canola seedlings): growth inhibition
- IC50 (F. oxysporum; Fusarium oxysporum, 48 h, read-out: IC50 of growth inhibition): ~26 µg/mL (≈ 71.1 µM)
- inhibition of growth (F. oxysporum; grown in the presence of BCAAs (Leu, Ile and Val), RPMI 1640, 48h): inhibition of growth was only observed at very high concentrations
- Ki ((UniProt Z9DR95LUB2)): 6.65 µM
- preferential binding, fold lower in Ki (ThAHAS; filamentous fungal AHAS over yeast SceAHAS): > 10 fold
- inhibition of plant AtAHAS (AtAHAS): No inhibition
- IC50 (ThAHAS K247A): 162 µM
- fold increase in IC50 by K247A mutation (ThAHAS K247A; K247A versus ThAHAS): 4 fold
- toxicity towards yeast [1]: general toxicity
- Ki (FuoAHAS): 14 µM
- Ki (SceAHAS): ~83 µM
- Ki (ThAHAS^M): 3.39 µM
- IC50 (ThAHAS^M): 20 µM

Compound: COC(=O)c1ccccc1S(=O)(=O)NC(=O)Nc1nc(C)cc(C)n1 [SM, sulfometuron methyl, reference compound]
- growth inhibition [2]: potently inhibited
- sensitivity of ScsAHAS (ScsAHAS; in vitro assay conditions): completely insensitive
- growth inhibition [3]: minimal sensitivity
- growth inhibition [4]: potently inhibited
- IC50 (ThAHAS): ~0.35 µM
- growth inhibition [5]: potently inhibited
- sensitivity of FuoAHAS (FuoAHAS; in vitro assay conditions): completely insensitive
- inhibition of ThAHAS^M (ThAHAS^M; even at elevated concentration (100 μM)): no inhibition
